Reference: patent US20120034613A1, “Apparatus and Method for Testing Relationships Between Gene Expression and Physical Appearance of Skin” (NSE Products, Inc., priority 2010, published 2012)

Test system: EpidermFT™ Skin Model (EFT-400) full thickness skin cultures
Test: Affymetrix GeneChip HG U133 Plus 2.0 microarray global gene expression, agent-exposed vs untreated skin cultures
Type: cell-based, human
Conditions: 0.5% vs untreated, 24 hr; down

OCc1ccccc1O[C@@H]1O[C@H](CO)[C@@H](O)[C@H](O)[C@H]1O [Salicin, 2-(Hydroxymethyl)phenyl β-D-glucospyranoside]
Fold change HAS3 (223541_at): 3.713 | Fold change HIP1R (209558_s_at): 3.322 | Fold change HMGCR (202539_s_at): 3.621 | Fold change HMGCR (202540_s_at): 3.753 | Fold change HMOX1 (203665_at): 3.193 | Fold change HOMER2 (217080_s_at): 3.789 | Fold change HOOK1 (219976_at): 3.54 | Fold change HS3ST6 (239547_at): 3.557 | Fold change HSD17B1 (205829_at): 3.15 | Fold change HYAL4 (220249_at): 3.117 | Fold change IL1F5 (222223_s_at): 3.177 | Fold change IL28RA (244261_at): 3.252 | Fold change IRX3 (229638_at): 3.118 | Fold change ITGAM (205786_s_at): 3.645 | Fold change JUB (225806_at): 3.698 | Fold change JUB (225807_at): 3.198 | Fold change JUB (1553764_a_at): 3.662 | Fold change KCTD11 (235857_at): 3.157 | Fold change KIAA0485 (214295_at): 3.094 | Fold change KIAA0513 (204546_at): 3.413 | Fold change KIAA0746 /// SERINC2 (212314_at): 3.628 | Fold change KIAA1239 (230765_at): 3.239 | Fold change KIAA1609 (65438_at): 3.527 | Fold change KIAA1609 (221843_s_at): 3.461 | Fold change KIF21A (226003_at): 3.77 | Fold change KIF21A (231875_at): 3.78 | Fold change KLF5 (209211_at): 3.563 | Fold change KLHL18 (1557165_s_at): 3.408 | Fold change KLK11 (205470_s_at): 3.318 | Fold change KLK13 (205783_at): 3.619 | Fold change KRT15 (204734_at): 3.6 | Fold change KRT34 (206969_at): 3.171 | Fold change LAD1 (203287_at): 3.072 | Fold change LOC283070 (226382_at): 3.685 | Fold change LOC653602 (229546_at): 3.058 | Fold change LOC728377 (228596_at): 3.786 | Fold change LOC100128178 (232090_at): 3.299 | Fold change LOC100128443 /// MAST4 (225613_at): 3.231 | Fold change LOC100128501 (229296_at): 3.452 | Fold change LOC100130885 (236213_at): 3.36 | Fold change LPCAT2 (227889_at): 3.256 | Fold change LYPLA1 (203007_x_at): 3.221 | Fold change MACC1 (232151_at): 3.738 | Fold change MACC1 (1566766_a_at): 3.181 | Fold change MBD1 (241813_at): 3.076 | Fold change ME1 (204058_at): 3.413 | Fold change ME1 (204059_s_at): 3.029 | Fold change MICALCL (243611_at): 3.335 | Fold change MICALL1 (221779_at): 3.602 | Fold change MKNK2 (223199_at): 3.427 | Fold change MLLT4 (224685_at): 3.09 | Fold change MPP7 (1564308_a_at): 3.034 | Fold change MPZL2 (203780_at): 3.468 | Fold change MPZL2 (230518_at): 3.326 | Fold change MSMB (207430 s_at): 3.689 | Fold change MTUS1 (212095_s_at): 3.034 | Fold change MTUS1 (212096_s_at): 3.773 | Fold change MYO5B (225301_s_at): 3.815 | Fold change NDRG2 (206453_s_at): 3.922 | Fold change NDRG2 (214279_s_at): 3.705 | Fold change NLRX1 (1553695_a_at): 3.887 | Fold change NOL3 (221566_s_at): 3.704 | Fold change NOL3 (221567_at): 3.416 | Fold change NT5C3 (223298_s_at): 3.641 | Fold change OMG (238720_at): 3.099 | Fold change P2RY2 (206277_at): 3.679 | Fold change P11 (206605_at): 3.785 | Fold change PANK1 (226649_at): 3.261 | Fold change PCDH7 (228640_at): 3.307 | Fold change PCSK6 (210553_x_at): 3.573 | Fold change PITX2 (207558_s_at): 3.504 | Fold change PLCXD1 (218951_s_at): 3.092 | Fold change PLLP (204519_s_at): 3.781 | Fold change PLXDC2 (227276_at): 3.44 | Fold change PLXNA2 (213030_s_at): 3.036 | Fold change PNPLA1 (1553364_at): 3.553 | Fold change PPID (228469_at): 3.327 | Fold change PPP1R13L (218849_s_at): 3.053 | Fold change PPP2R2C (223574_x_at): 3.091 | Fold change PSG4 (208191_x_at): 3.458 | Fold change PSPH (205048_s_at): 3.381 | Fold change PTGER3 (210375_at): 3.745 | Fold change PTPN3 (203997_at): 3.799 | Fold change PTPN3 (227944_at): 3.077 | Fold change RAB3D (225001_at): 3.306 | Fold change RAB7B (230266_at): 3.207 | Fold change RAET1E (1552777_a_at): 3.558 | Fold change RASAL1 (219752_at): 3.507 | Fold change RBM35A (219121_s_at): 3.786 | Fold change RDH13 (1559190_s_at): 3.726 | Fold change RHBDL2 (1554895_a_at): 3.193 | Fold change RHOD (209885_at): 3.12 | Fold change RHOU (223168_at): 3.283 | Fold change S1PR5 (230464_at): 3.789 | Fold change S100P (204351_at): 3.66 | Fold change SCD (200832_s_at): 3.77 | Fold change SCD /// SCDOS (223839_s_at): 3.34 | Fold change SCN4B (236359_at): 3.105 | Fold change SDC1 (201287_s_at): 3.32 | Fold change SEPT8 (209000_s_at): 3.657 | Fold change SERPINB3 (209719_x_at): 3.665 | Fold change SERPINB3 (209720_s_at): 3.147 | Fold change SERPINB7 (206421_s_at): 3.623 | Fold change SERPINB12 (1553057_at): 3.711 | Fold change SFT2D2 (214838_at): 3.904 | Fold change SGPL1 (212322_at): 3.184 | Fold change SLC4A11 (223748_at): 3.82 | Fold change SLC5A1 (242773_at): 3.714 | Fold change SLC22A3 (205421_at): 3.516 | Fold change SLC38A1 (224579_at): 3.045 | Fold change SLC38A4 (220786 s_at): 3.844 | Fold change SMPD3 (231732_at): 3.594 | Fold change SORL1 (203509_at): 3.285 | Fold change SPRR3 (232082_x_at): 3.303
